Assay results taken from ChEMBL document CHEMBL5634144, “Design, synthesis and biological evaluation of novel DCLK1 inhibitor containing purine skeleton for the treatment of pancreatic cancer” (Eur J Med Chem, 2023).
pIC50: −log10 of the molar value. Activity calls are given as the source filed them. The calls are words filed in the database; no cut-off is given here.

Columns and labels:
SW1990 [1] = test: Induction of apoptosis in human SW1990 cells assessed as late apoptotic cells at 2 uM incubated for 6 days by Annexin V/PI staining based flow cytometry (reference value: 2.01 %); format: functional; conditions: time 6 day
SW1990 [2] = test: Downregulation of N-cadherin level in human SW1990 cells at 0.5 to 2 uM by Western blot analysis; format: functional, cell-based; conditions: dose 0.5-2 µM
SW1990 [3] = test: Induction of cell cycle arrest at G0/G1 phase in human SW1990 cells at 0.5 uM incubated for 6 days by PI staining based flow cytometry (reference value: 49.65 %); format: functional; conditions: time 6 day
SW1990 [4] = test: Antitumor activity against human SW1990 cells xenografted in BALB/c nude mouse model assessed as decrease in CD133 level at 30 to 60 mg/kg, ip for 21 days consecutively by IHC analysis; format: functional, organism-based; conditions: dose 30-60 mg/kg, time 21.0 day
[5] = target: T1, Serine/threonine-protein kinase DCLK1 (Homo sapiens) (UniProt O15075); test: Inhibition of DCLK1 (unknown origin) at 200 nM preincubated for 10 mins followed by substrate/ATP addition measured after 60 mins by mobility shift assay relative to control; conditions: time 70.0 min
T1 sequence (whole entry): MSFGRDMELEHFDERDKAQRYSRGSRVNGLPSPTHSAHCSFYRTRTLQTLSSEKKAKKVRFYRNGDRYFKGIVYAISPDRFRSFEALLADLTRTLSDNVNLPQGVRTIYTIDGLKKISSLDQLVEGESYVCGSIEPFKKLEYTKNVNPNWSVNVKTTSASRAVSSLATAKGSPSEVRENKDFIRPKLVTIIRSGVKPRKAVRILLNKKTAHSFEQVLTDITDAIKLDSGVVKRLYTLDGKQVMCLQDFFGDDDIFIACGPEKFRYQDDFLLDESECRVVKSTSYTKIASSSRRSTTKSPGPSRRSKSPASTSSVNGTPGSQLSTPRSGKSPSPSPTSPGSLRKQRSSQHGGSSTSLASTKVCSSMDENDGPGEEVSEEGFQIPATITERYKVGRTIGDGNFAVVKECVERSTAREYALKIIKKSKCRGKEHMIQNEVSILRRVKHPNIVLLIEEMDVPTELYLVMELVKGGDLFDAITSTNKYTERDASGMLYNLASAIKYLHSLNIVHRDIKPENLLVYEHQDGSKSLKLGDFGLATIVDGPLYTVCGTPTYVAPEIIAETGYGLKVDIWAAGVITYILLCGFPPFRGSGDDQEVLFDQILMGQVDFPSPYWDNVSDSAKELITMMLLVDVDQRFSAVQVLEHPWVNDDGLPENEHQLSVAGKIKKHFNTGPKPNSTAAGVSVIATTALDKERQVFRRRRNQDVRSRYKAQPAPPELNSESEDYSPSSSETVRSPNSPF

SW1990 [6] = test: Antitumor activity against human SW1990 cells xenografted in BALB/c nude mouse model assessed as decrease in N-cadherin level at 30 to 60 mg/kg, ip for 21 days consecutively by Western blot analysis; format: functional, organism-based; conditions: dose 30-60 mg/kg, time 21.0 day
SW1990 [7] = test: Antitumor activity against human SW1990 cells xenografted in BALB/c nude mouse model assessed as change in nuclear chromatin marginalization treated intraperitoneally for 21 days consecutively by H and E staining based analysis; format: functional; conditions: dose 30-60 mg/kg, route ip, time 21.0 day
SW1990 [8] = test: Induction of apoptosis in human SW1990 cells assessed as viable cells at 0.5 uM incubated for 6 days by Annexin V/PI staining based flow cytometry (reference value: 92.93 %); format: functional; conditions: SW1990, 144 h, time 6 day, read-out: Activity
SW1990 [9] = test: Induction of apoptosis in human SW1990 cells assessed as late apoptotic cells at 0.5 uM incubated for 6 days by Annexin V/PI staining based flow cytometry (reference value: 2.01 %); format: functional; conditions: time 6 day
SW1990 [10] = test: Antitumor activity against human SW1990 cells xenografted in BALB/c nude mouse model assessed as increase in E-cadherin level at 30 to 60 mg/kg, ip for 21 days consecutively by Western blot analysis; format: functional, organism-based; conditions: dose 30-60 mg/kg, time 21.0 day
SW1990 [11] = test: Induction of cell cycle arrest at S phase in human SW1990 cells at 2 uM incubated for 6 days by PI staining based flow cytometry (reference value: 21.20 %); format: functional; conditions: time 6 day
SW1990 [12] = test: Inhibition of cell invasion in human SW1990 cells at 0.5 to 2 uM by transwell assay; format: functional, cell-based; conditions: dose 0.5-2 µM
SW1990 [13] = test: Potency index, ratio of DCLK1-IN-1 IC50 to test compound IC50 for human SW1990 cells assessed as inhibition cell proliferation incubated for 6 days by MTT assay; format: functional; conditions: time 6 day
HCT-116 = test: Antiproliferative activity against human HCT-116 cells assessed as inhibition cell proliferation incubated for 6 days by MTT assay; format: functional, cell-based; conditions: HCT-116, 144 h
SW1990 [14] = test: Antitumor activity against human SW1990 cells xenografted in BALB/c nude mouse model assessed as decrease in Snail level at 30 to 60 mg/kg, ip for 21 days consecutively by Western blot analysis; format: functional, organism-based; conditions: dose 30-60 mg/kg, time 21.0 day
[15] = Toxicity in BALB/c nude mouse xenografted with human SW1990 cells assessed as change in body weight at 30 to 60 mg/kg, ip for 21 days consecutively; format: organism-based; conditions: in vivo, 504 h, dose 30-60 mg/kg, time 21 day
SW1990 [16] = test: Induction of apoptosis in human SW1990 cells assessed as necrotic cells at 0.5 uM incubated for 6 days by Annexin V/PI staining based flow cytometry (reference value: 0.50 %); format: functional; conditions: time 6 day
SW1990 [17] = test: Antitumor activity in human SW1990 cells assessed as decrease in CD44 level at 0.5 to 2 uM by immunofluorescence based analysis; format: functional, cell-based; conditions: dose 0.5-2 µM
SW1990 [18] = test: Induction of apoptosis in human SW1990 cells assessed as necrotic cells at 1 uM incubated for 6 days by Annexin V/PI staining based flow cytometry (reference value: 0.50 %); format: functional; conditions: time 6 day
SW1990 [19] = test: Induction of cell cycle arrest at S phase in human SW1990 cells at 0.5 uM incubated for 6 days by PI staining based flow cytometry (reference value: 21.20 %); format: functional; conditions: time 6 day
SW1990 [20] = test: Antitumor activity in human SW1990 cells assessed as decrease in CD133 level at 0.5 to 2 uM by immunofluorescence based analysis; format: functional, cell-based; conditions: dose 0.5-2 µM
SW1990 [21] = test: Induction of cell cycle arrest at G0/G1 phase in human SW1990 cells at 2 uM incubated for 6 days by PI staining based flow cytometry (reference value: 49.65 %); format: functional; conditions: time 6 day
SW1990 [22] = test: Induction of cell cycle arrest at G2/M phase in human SW1990 cells at 1 uM incubated for 6 days by PI staining based flow cytometry (reference value: 29.15 %); format: functional; conditions: time 6 day
SW1990 [23] = test: Antitumor activity against human SW1990 cells xenografted in BALB/c nude mouse model assessed as tumor growth inhibition at 60 mg/kg, ip for 21 days consecutively relative to control; format: functional; conditions: SW1990, 504 h, time 21 day, read-out: TGI
SW1990 [24] = test: Induction of apoptosis in human SW1990 cells assessed as early apoptotic cells at 0.5 uM incubated for 6 days by Annexin V/PI staining based flow cytometry (reference value: 4.55 %); format: functional; conditions: time 6 day

COc1cc(N2CCN(C)CC2)ccc1Nc1nc(Nc2ccccc2S(=O)(=O)C(C)C)c2nc[nH]c2n1
Activity (SW1990 [1]): 11.39%
Activity (SW1990 [2]): Active
Activity (SW1990 [3]): 52.79%
Activity (SW1990 [4]): Active
inhibition [5]: 29.8%
Activity (SW1990 [6]): Active
Activity (SW1990 [7]): Dose-Dependent Effect
viability at 0.5 µM (SW1990 [8]): 78.5%
Activity (SW1990 [9]): 6.77%
Activity (SW1990 [10]): Active
Activity (SW1990 [11]): 14.23%
inhibition (SW1990 [12]): Active
Ratio IC50 (SW1990 [13]): 22
pIC50 (HCT-116): 5.52
Activity (SW1990 [14]): Active
Activity [15]: Toxic
Activity (SW1990 [16]): 5.58%
Activity (SW1990 [17]): Active
Activity (SW1990 [18]): 8.2%
Activity (SW1990 [19]): 19.66%
Activity (SW1990 [20]): Active
Activity (SW1990 [21]): 63.14%
Activity (SW1990 [22]): 23.47%
inhibition in vivo at 60 mg/kg (SW1990 [23]): 68.6%
Activity (SW1990 [24]): 9.19%
